Data as given in PubChem BioAssay (NCI).
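Method: 48-hour compound exposure of cells in 96-well plates, five concentrations, linear interpolation of endpoints. At the TGI there is no net growth.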

What was measured:
Assay in all cases: DTP human tumour cell line panel, 48 h
HCT-15 colon = tested on: HCT-15 colon
CAKI-1 renal = tested on: CAKI-1 renal
A549 NSCLC = tested on: A549 NSCLC
HOP-18 NSCLC = tested on: HOP-18 NSCLC
ACHN renal = tested on: ACHN renal
HT29 colon = tested on: HT29 colon
NCI-H23 lung = tested on: NCI-H23 lung
IGROV1 ovarian = tested on: IGROV1 ovarian
SN12C renal = tested on: SN12C renal
SK-MEL-28 melanoma = tested on: SK-MEL-28 melanoma
TK-10 renal = tested on: TK-10 renal
MOLT-4 leukemia = tested on: MOLT-4 leukemia
UO-31 renal = tested on: UO-31 renal
RXF 393 renal = tested on: RXF 393 renal
KM12 colon = tested on: KM12 colon
OVCAR-3 ovarian = tested on: OVCAR-3 ovarian
HCC-2998 colon = tested on: HCC-2998 colon
OVCAR-8 ovarian = tested on: OVCAR-8 ovarian
SF-295 CNS = tested on: SF-295 CNS
SK-MEL-5 melanoma = tested on: SK-MEL-5 melanoma
SK-MEL-2 melanoma = tested on: SK-MEL-2 melanoma
U251 CNS = tested on: U251 CNS
NCI-H460 lung = tested on: NCI-H460 lung
RXF-631 renal = tested on: RXF-631 renal
DLD-1 colon = tested on: DLD-1 colon
786-0 renal = tested on: 786-0 renal
HOP-92 NSCLC = tested on: HOP-92 NSCLC
M14 melanoma = tested on: M14 melanoma
MALME-3M melanoma = tested on: MALME-3M melanoma
SK-OV-3 ovarian = tested on: SK-OV-3 ovarian
HOP-62 NSCLC = tested on: HOP-62 NSCLC
NCI-H522 lung = tested on: NCI-H522 lung
DMS 273 small cell lung = tested on: DMS 273 small cell lung
HL-60(TB) leukemia = tested on: HL-60(TB) leukemia
LXFL 529 NSCLC = tested on: LXFL 529 NSCLC
UACC-257 melanoma = tested on: UACC-257 melanoma
OVCAR-5 ovarian = tested on: OVCAR-5 ovarian
CCRF-CEM leukemia = tested on: CCRF-CEM leukemia
M19-MEL melanoma = tested on: M19-MEL melanoma
A498 renal = tested on: A498 renal
NCI-H226 lung = tested on: NCI-H226 lung
SW-620 colon = tested on: SW-620 colon
UACC-62 melanoma = tested on: UACC-62 melanoma
SNB-75 CNS = tested on: SNB-75 CNS
LOX IMVI melanoma = tested on: LOX IMVI melanoma
SF-539 CNS = tested on: SF-539 CNS
DMS 114 small cell lung = tested on: DMS 114 small cell lung
RPMI-8226 leukemia = tested on: RPMI-8226 leukemia
SF-268 CNS = tested on: SF-268 CNS
K-562 leukemia = tested on: K-562 leukemia
SNB-78 CNS = tested on: SNB-78 CNS
XF 498 CNS = tested on: XF 498 CNS
HCT-116 colon = tested on: HCT-116 colon
EKVX NSCLC = tested on: EKVX NSCLC
KM20L2 colon = tested on: KM20L2 colon
COLO 205 colon = tested on: COLO 205 colon

`CCN(CC)CCCC(C)Nc1c2cc(OC)cc(C)c2nc2c(C)c(Cl)ccc12` (stereo not given) showed a TGI (HCT-15 colon) of 3.2 µM, a TGI (CAKI-1 renal) of 4.81 µM and a TGI (A549 NSCLC) of 3.31 µM. It also gave a TGI (HOP-18 NSCLC) of 2910 nM, a TGI (ACHN renal) of 3.09 µM and a TGI (HT29 colon) of 3.03 µM. For the same compound, the TGI (NCI-H23 lung) was 2.82 µM, the TGI (IGROV1 ovarian) was 3.09 µM and the TGI (SN12C renal) was 2930 nM. The TGI (SK-MEL-28 melanoma) was 3.39 µM, the TGI (TK-10 renal) was 3.19 µM and the TGI (MOLT-4 leukemia) was 3.26 µM. The TGI (UO-31 renal) was 3.1 µM, the TGI (RXF 393 renal) was 3.54 µM and the TGI (KM12 colon) was 2.99 µM. For the same compound, the TGI (OVCAR-3 ovarian) was 3.27 µM, the TGI (HCC-2998 colon) was 3.03 µM and the TGI (OVCAR-8 ovarian) was 3.19 µM. The TGI (SF-295 CNS) was 3.71 µM, the TGI (SK-MEL-5 melanoma) was 3.28 µM and the TGI (SK-MEL-2 melanoma) was 3.44 µM. For the same compound, the TGI (U251 CNS) was 3.26 µM, the TGI (NCI-H460 lung) was 3.32 µM and the TGI (RXF-631 renal) was 3.23 µM. For the same compound, the TGI (DLD-1 colon) was 2.93 µM, the TGI (786-0 renal) was 3.02 µM and the TGI (HOP-92 NSCLC) was 3.22 µM. The TGI (M14 melanoma) was 3.68 µM, the TGI (MALME-3M melanoma) was 3.52 µM and the TGI (SK-OV-3 ovarian) was 3.06 µM. For the same compound, the TGI (HOP-62 NSCLC) was 3.08 µM, the TGI (NCI-H522 lung) was 3.06 µM and the TGI (DMS 273 small cell lung) was 3.14 µM. It also gave a TGI (HL-60(TB) leukemia) of 4.26 µM, a TGI (LXFL 529 NSCLC) of 2.98 µM and a TGI (UACC-257 melanoma) of 3.31 µM. It also gave a TGI (OVCAR-5 ovarian) of 3.92 µM, a TGI (CCRF-CEM leukemia) of 3.25 µM and a TGI (M19-MEL melanoma) of 3.13 µM. The TGI (A498 renal) was 6.3 µM.
With `O=C(Nc1ccc(Cl)c(Cl)c1)C(=O)C(C(=O)c1ccccc1-c1ccccc1)C1OC(=O)c2ccccc21` (stereo not given) the TGI (A549 NSCLC) was 63.2 µM, the TGI (ACHN renal) was > 100 µM and the TGI (HT29 colon) was > 100 µM. The TGI (NCI-H23 lung) was 24.6 µM, the TGI (NCI-H226 lung) was 15.1 µM and the TGI (SW-620 colon) was 42.7 µM. For the same compound, the TGI (IGROV1 ovarian) was 73.5 µM, the TGI (SK-MEL-28 melanoma) was > 100 µM and the TGI (TK-10 renal) was 43.7 µM. It also gave a TGI (UACC-62 melanoma) of 41.2 µM, a TGI (SNB-75 CNS) of 41.3 µM and a TGI (LOX IMVI melanoma) of 28.9 µM. For the same compound, the TGI (MOLT-4 leukemia) was > 100 µM, the TGI (SF-539 CNS) was 27.9 µM and the TGI (DMS 114 small cell lung) was 27 µM. It also gave a TGI (RPMI-8226 leukemia) of 63.5 µM, a TGI (SF-268 CNS) of 72.2 µM and a TGI (UO-31 renal) of 33.6 µM. For the same compound, the TGI (RXF 393 renal) was 21.5 µM, the TGI (K-562 leukemia) was > 100 µM and the TGI (KM12 colon) was 43.2 µM. For the same compound, the TGI (OVCAR-3 ovarian) was 31.9 µM, the TGI (HCC-2998 colon) was 27.6 µM and the TGI (OVCAR-8 ovarian) was 84.5 µM. The TGI (SF-295 CNS) was 73.6 µM, the TGI (SNB-78 CNS) was > 100 µM and the TGI (SK-MEL-5 melanoma) was 30.3 µM. For the same compound, the TGI (SK-MEL-2 melanoma) was 24.7 µM, the TGI (U251 CNS) was 23 µM and the TGI (NCI-H460 lung) was 62.6 µM. It also gave a TGI (RXF-631 renal) of 37.7 µM, a TGI (DLD-1 colon) of 30.1 µM and a TGI (786-0 renal) of 25.6 µM. It also gave a TGI (HOP-92 NSCLC) of 30.2 µM, a TGI (XF 498 CNS) of 26.5 µM and a TGI (M14 melanoma) of 30.1 µM. For the same compound, the TGI (HCT-116 colon) was 22.3 µM, the TGI (SK-OV-3 ovarian) was 78.3 µM and the TGI (HOP-62 NSCLC) was 27.4 µM. It also gave a TGI (NCI-H522 lung) of 20.6 µM, a TGI (HL-60(TB) leukemia) of 69.4 µM and a TGI (LXFL 529 NSCLC) of 21 µM. The TGI (UACC-257 melanoma) was > 100 µM, the TGI (OVCAR-5 ovarian) was 33.9 µM and the TGI (CCRF-CEM leukemia) was 84.9 µM. For the same compound, the TGI (M19-MEL melanoma) was 33.9 µM, the TGI (EKVX NSCLC) was 43.4 µM and the TGI (KM20L2 colon) was 52.7 µM. For the same compound, the TGI (COLO 205 colon) was 30.2 µM and the TGI (A498 renal) was 65.5 µM.
